Assay results as given in US8952024B2, “Herbicidal pyrimidone derivatives” (E I du Pont de Nemours and Company, priority 2009, dated 2015).

Experiments:
Experiment in all cases: Test B pre-/postemergence plant response
Format in all cases: in vivo
[1] = test system: Italian ryegrass (Lolium multiflorum); details: for Ryegrass, Italian plant response rating (0 to 100 scale): 62 g ai/ha, 0 is no effect, 13 to 15 days
How it was run: (§1)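 Visual ratings on a 0–100 scale (100 = complete control) were made versus untreated controls 13–15 days after treatment in a greenhouse. Compounds in surfactant-containing non-phytotoxic solvent were applied preemergence to seeds in loam–sand blend or postemergence to 1- to 4-leaf plants (2–18 cm).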

[2] = test system: bermudagrass (Cynodon dactylon); details: for Bermudagrass plant response rating (0 to 100 scale): 62 g ai/ha, 0 is no effect, 13 to 15 days
How it was run: as §1

[3] = test system: cocklebur (Xanthium strumarium); details: for Cocklebur plant response rating (0 to 100 scale): 62 g ai/ha, 0 is no effect, 13 to 15 days
How it was run: as §1

[4] = test system: downy bromegrass (Bromus tectorum); details: for Bromegrass, Downy plant response rating (0 to 100 scale): 62 g ai/ha, 0 is no effect, 13 to 15 days
How it was run: as §1

kochia (Kochia scoparia) = details: for Kochia plant response rating (0 to 100 scale): 62 g ai/ha, 0 is no effect, 13 to 15 days
How it was run: as §1

[5] = test system: large crabgrass (Digitaria sanguinalis); details: for Crabgrass, Large plant response rating (0 to 100 scale): 62 g ai/ha, 0 is no effect, 13 to 15 days
How it was run: as §1

[6] = test system: morningglory (Ipomoea coccinea); details: for Morningglory plant response rating (0 to 100 scale): 62 g ai/ha, 0 is no effect, 13 to 15 days
How it was run: as §1

soybean (Glycine max) = details: for Soybean plant response rating (0 to 100 scale): 62 g ai/ha, 0 is no effect, 13 to 15 days
How it was run: as §1

[7] = test system: velvetleaf (Abutilon theophrasti); details: for Velvetleaf plant response rating (0 to 100 scale): 62 g ai/ha, 0 is no effect, 13 to 15 days
How it was run: as §1

[8] = test system: wheat (Triticum aestivum); details: for Wheat plant response rating (0 to 100 scale): 62 g ai/ha, 0 is no effect, 13 to 15 days
How it was run: as §1

[9] = test system: woolly cupgrass (Eriochloa villosa); details: for Cupgrass, Woolly plant response rating (0 to 100 scale): 62 g ai/ha, 0 is no effect, 13 to 15 days
How it was run: as §1

[10] = test system: yellow nutsedge (Cyperus esculentus); details: for Nutsedge, Yellow plant response rating (0 to 100 scale): 62 g ai/ha, 0 is no effect, 13 to 15 days
How it was run: as §1

[11] = 31 g ai/ha, postemergence, scale 0 to 100, 0 is no effect, 100 is complete control
[12] = postemergence, 100 is complete control
[13] = Postemergence, 250 g ai/ha, scale 0 to 100 (0 no effect, 100 complete control)
[14] = Postemergence, 125 g ai/ha, visual rating after 13 to 15 days, scale 0 (no effect) to 100 (complete control)

SMILES: CCCCn1c(-c2ccccc2)ncc(C(=O)C2=C(O)CCCC2=O)c1=O [Compound 86]
- Plant response rating, Ryegrass, Italian [1, 11]: 25
- Ryegrass, Italian plant response rating (0 to 100 scale) [1, 12]: 30
- Plant response rating, Ryegrass, Italian [1, 13]: 60
- Plant response rating, Bermudagrass [2, 11]: 85
- Bermudagrass plant response rating (0 to 100 scale) [2, 12]: 90
- Plant response rating, Bermudagrass [2, 14]: 95
- Plant response rating, Bermudagrass [2, 13]: 95
- Plant response rating, Cocklebur [3, 11]: 85
- Cocklebur plant response rating (0 to 100 scale) [3, 12]: 95
- Plant response rating, Cocklebur [3, 14]: 95
- Plant response rating, Cocklebur [3, 13]: 98
- Plant response rating, Bromegrass, Downy [4, 11]: 10
- Bromegrass, Downy plant response rating (0 to 100 scale) [4, 12]: 10
- Plant response rating, Bromegrass, Downy [4, 14]: 35
- Plant response rating, Bromegrass, Downy [4, 13]: 50
- Plant response rating, Kochia (kochia (Kochia scoparia); [11]): 75
- Kochia plant response rating (0 to 100 scale) (kochia (Kochia scoparia); [12]): 85
- Plant response rating, Kochia (kochia (Kochia scoparia); [13]): 98
- Plant response rating, Crabgrass, Large [5, 11]: 85
- Crabgrass, Large plant response rating (0 to 100 scale) [5, 12]: 98
- Plant response rating, Crabgrass, Large [5, 14]: 98
- Plant response rating, Crabgrass, Large [5, 13]: 98
- Plant response rating, Morningglory [6, 11]: 70
- Morningglory plant response rating (0 to 100 scale) [6, 12]: 80
- Plant response rating, Morningglory [6, 13]: 100
- Plant response rating, Soybean (soybean (Glycine max); [11]): 80
- Soybean plant response rating (0 to 100 scale) (soybean (Glycine max); [12]): 95
- Plant response rating, Soybean (soybean (Glycine max); [13]): 98
- Plant response rating, Velvetleaf [7, 11]: 98
- Velvetleaf plant response rating (0 to 100 scale) [7, 12]: 100
- Plant response rating, Velvetleaf [7, 13]: 100
- Plant response rating, Wheat [8, 11]: 5
- Wheat plant response rating (0 to 100 scale) [8, 12]: 35
- Plant response rating, Wheat [8, 13]: 45
- Plant response rating, Cupgrass, Woolly [9, 11]: 75
- Cupgrass, Woolly plant response rating (0 to 100 scale) [9, 12]: 85
- Plant response rating, Cupgrass, Woolly [9, 14]: 95
- Plant response rating, Cupgrass, Woolly [9, 13]: 95
- Plant response rating, Nutsedge, Yellow [10, 11]: 65
- Nutsedge, Yellow plant response rating (0 to 100 scale) [10, 12]: 70
- Plant response rating, Nutsedge, Yellow [10, 13]: 85

SMILES: O=C1CCCC(OC(=O)C2CC2)=C1C(=O)c1cnc(-c2ccccc2)n(-c2ccccc2)c1=O [Compound 88]
- Plant response rating, Ryegrass, Italian [1, 11]: 5
- Ryegrass, Italian plant response rating (0 to 100 scale) [1, 12]: 5
- Plant response rating, Ryegrass, Italian [1, 13]: 80
- Plant response rating, Bermudagrass [2, 11]: 80
- Bermudagrass plant response rating (0 to 100 scale) [2, 12]: 80
- Plant response rating, Bermudagrass [2, 14]: 80
- Plant response rating, Bermudagrass [2, 13]: 85
- Plant response rating, Cocklebur [3, 11]: 90
- Cocklebur plant response rating (0 to 100 scale) [3, 12]: 90
- Plant response rating, Cocklebur [3, 14]: 95
- Plant response rating, Cocklebur [3, 13]: 95
- Plant response rating, Bromegrass, Downy [4, 11]: 40
- Bromegrass, Downy plant response rating (0 to 100 scale) [4, 12]: 45
- Plant response rating, Bromegrass, Downy [4, 14]: 45
- Plant response rating, Bromegrass, Downy [4, 13]: 60
- Plant response rating, Kochia (kochia (Kochia scoparia); [11]): 75
- Kochia plant response rating (0 to 100 scale) (kochia (Kochia scoparia); [12]): 75
- Plant response rating, Kochia (kochia (Kochia scoparia); [13]): 85
- Plant response rating, Crabgrass, Large [5, 11]: 95
- Crabgrass, Large plant response rating (0 to 100 scale) [5, 12]: 98
- Plant response rating, Crabgrass, Large [5, 14]: 98
- Plant response rating, Crabgrass, Large [5, 13]: 98
- Plant response rating, Morningglory [6, 11]: 90
- Morningglory plant response rating (0 to 100 scale) [6, 12]: 90
- Plant response rating, Morningglory [6, 13]: 95
- Plant response rating, Soybean (soybean (Glycine max); [11]): 75
- Soybean plant response rating (0 to 100 scale) (soybean (Glycine max); [12]): 90
- Plant response rating, Soybean (soybean (Glycine max); [13]): 98
- Plant response rating, Velvetleaf [7, 11]: 80
- Velvetleaf plant response rating (0 to 100 scale) [7, 12]: 90
- Plant response rating, Velvetleaf [7, 13]: 98
- Plant response rating, Wheat [8, 11]: 0
- Wheat plant response rating (0 to 100 scale) [8, 12]: 5
- Plant response rating, Wheat [8, 13]: 5
- Plant response rating, Cupgrass, Woolly [9, 11]: 75
- Cupgrass, Woolly plant response rating (0 to 100 scale) [9, 12]: 80
- Plant response rating, Cupgrass, Woolly [9, 14]: 90
- Plant response rating, Cupgrass, Woolly [9, 13]: 95
- Plant response rating, Nutsedge, Yellow [10, 11]: 25
- Nutsedge, Yellow plant response rating (0 to 100 scale) [10, 12]: 65
- Plant response rating, Nutsedge, Yellow [10, 13]: 75
